Laboratory results taken from patent publication US20240382495A1, “COMBINATIONS OF COPANLISIB WITH ANTI-PD-1 ANTIBODY” (BAYER PHARMA AKTIENGESELLSCHAFT, priority 2023, published 2024).
Counter-ions that a name gives are not always drawn.

Columns and labels:
[1] = system: A20 diffuse large B cell lymphoma; assay: Anti-tumor efficacy in DLBCL syngeneic A20 mouse model; type: in vivo; conditions: monotherapy; Cpd A 14 mg/kg, Cpd B 200 μg/mouse, intravenously; vs vehicle control group
Protocol: (§1) Experimental Methods A20 diffuse large B cell lymphoma and CT26 colorectal cancer cells were maintained in vitro in cell cultural medium supplemented with serum (according to the instructions for each corresponding cell lines) at 37° C. in an atmosphere of 5% CO2 in air. The tumor cells were routinely subcultured twice weekly. The cells in an exponential growth phase were harvested and counted for tumor inoculation. To investigate anti-tumor efficacy and mechanisms of action in vivo, each mouse was inoculated subcutaneously at the right lower flank region with tumor cells (1×10^5-2×10^6 depending on the cell lines) in 0.1 ml of PBS with or without metrigel for tumor development. Before commencement of treatment, all animals were weighed and the tumor volumes were measured using a caliper. […]
(§2) Tumor volumes were measured 2-3 times weekly in two dimensions using a caliper, and the volume was expressed in mm^3 using the formula: V=0.5 a x b2 where a and b are the long and short diameters of the tumor, respectively. Tumor weight was measured at study termination. […]
The anti-tumor activity of Compound A and Compound B was assessed firstly in an immune-checkpoint blocker resistant DLBCL syngeneic A20 xenograft mouse model as single agent and in combination. […] Body weights and tumor size were measured three times per week. […] The tolerability was assessed by body weight change. […]

[2] = system: regulatory T cells (Treg); assay: Analysis of Treg and CD8+ T cells in tumor, spleen and thymus of A20 model; type: in vivo, mouse
Protocol: Sampling procedures: organ and tumor tissues were quickly removed and weighted 3h post the final dose for FACS, IHC (FFPE), and RNA/pretein expression analysis.
The anti-tumor activity of Compound A and Compound B was assessed firstly in an immune-checkpoint blocker resistant DLBCL syngeneic A20 xenograft mouse model as single agent and in combination. A20 cells were inoculated subcutaneously at the right flank of female BALB/c mice for tumor development. The treatment was started when the average tumor size reached about 116 mm^3. Mice were allocated randomly into experimental groups according to their tumor sizes and being treated from day 12 after tumor cell inoculation. Cpd A was dosed at 14 mg/kg and Cpd B at 200 μg/mouse intravenously with the schedule indicated in FIG. 1 A. Treatment groups were: control antibody (ctrl Ab), vehicle control (vehicle), compound A monotherapy (Cpd. A), Cpd. B monotherapy, 3 combination groups with different dosing schedules. Body weights and tumor size were measured three times per week. Tumor growth curve (FIG. 1B), tumor weight at the end of treatment (FIG. 1C) and tumor response (FIG. 1D) were used as anti-tumor activity endpoints. The tolerability was assessed by body weight change. […]

CT26 colorectal cancer = assay: Anti-tumor efficacy in syngeneic CT26 colorectal cancer mouse model; type: in vivo; conditions: CT26 (KRASmut, non-MSIhigh) model, monotherapy
Protocol: as §1, §2
Therefore, the anti-tumor activity of Compound A and Compound B was assessed in the mouse syngeneic CT26 (KRASmut, non-MSIhig^h) colorectal cancer xenograft model as single agent and in combination. […]

COc1c(OCCCN2CCOCC2)ccc2c1N=C(NC(=O)c1cnc(N)nc1)N1CCN=C21 [Cpd A, 2-amino-N-[7-methoxy-8-(3-morpholin-4-ylpropoxy)-2,3-dihydroimid-azo[1,2-c]quinazolin-5-yl]pyrimidine-5-carboxamide dihydrochloride]
relative tumor growth inhibition (TGI %) [1]: 78% | effect on Treg in thymus and spleen ([2]; A20 model, thymus and spleen): minimal or no effects | effect on Treg population in tumors ([2]; A20 tumors, Treg among CD4+ T cells): specifically reduce the Treg population in tumors | TGI (CT26 colorectal cancer): 71%
